# Tests used:
# [1] = enteral administration, rats with intestinal insufficiency; from FR 03 08349; cited from earlier work
# [2] = undernourished aged rats, former studies of the inventors; cited from earlier work
# epitrochlearis [3] = test: Muscle protein synthesis (FSR) measured in vitro on isolated incubated muscle; design: species or system rat; conditions: for increase of muscle protein synthesis (FSR): isolated muscle of undernourished adult rats, 2.5 mM citrulline, 2 hours incubation, versus control without citrulline
# Protocol: Treatment of animals: Male Sprague-Dawley rats (Charles River Laboratoires, L'Arbresles, France) aged 3 months (n=20) are placed in individual cages in a thermostated atmosphere (23°±1° C.), and subjected to a 12 hr light/dark cycle (dark between 8 a.m.-8 p.m.).
# Acclimatization of the rats is carried out during 2 weeks, during which the spontaneous food consumption is measured. The rats are fed a standard diet (A04, UAR, Villemoisson-sur-Orge, France) containing 17% proteins, 3% lipids, 59% carbohydrates and 21% water, fibers, vitamins and minerals. The average dietary intake during this period is 28 g/day for adult rats.
# At the end of the acclimatization period, the rats are randomized in 2 groups: a control group made up of rats which are fed ad libitum (AL), and a group which is subjected to dietary restrictions during the same period: the rats are fed at a rate of 50% of spontaneous ingesta during 6 weeks with a 5% protein diet (Walrand S, Chambon-Savanovitch C, Felgines C, Chassagne J, Raul F, Normand B et al. Aging: a barrier to renutrition? Nutritional and immunologic evidence in rats. Am J Clin Nutr 2000; 72:816-824).
# Incubated isolated muscles. Muscles were incubated according to a method which had been used previously (Minet-Quinard R, Moinard C, Villie F, Vasson M P, Cynober L. Metabolic pathways implicated in the kinetic impairment of muscle glutamine homeostasis in adult and old glucocorticoid-treated rats. Am J Physiol Endocrinol Metab 2004; 287:E671-E676). Epitrochlearis is used because it is the most suitable for this type of study. […] At the end of the incubation, the muscles are collected and kept at −80° C. until the incorporation of ^13C-phenylalanine is measured by mass spectrometry in order to determine the Fractional Protein Synthesis (FSR) (Guillet C, Boirie Y, Walrand S. An integrative approach to in-vivo protein synthesis measurement: from whole tissue to specific proteins. Curr Opin Clin Nutr Metab Care 2004; 7:531-538). […]
# P70S6kinase = test: In vivo activation of the mTOR pathway: P70S6kinase by Western Blot in tibialis muscles of undernourished aged rats; design: species or system rat; conditions: tibialis muscle
# Protocol: Treatment of animals: Forty male Sprague-Dawley rats aged 19 months (Charles River, L'Arbresle, France) were used. During an acclimatization period of 2 weeks the animals were fed ad libitum with a standard diet (UARA04, Usine d'Alimentation Rationnelle, Villemoisson-sur-Orge). Measurement of the spontaneous ingesta was carried out regularly. After this period 30 rats were subjected to a 50% dietary restriction during 12 weeks. Sacrificing 10 rats, used as a control group (group R), was carried out at the end of the dietary restriction period. The other 20 animals were again fed during one week before being sacrificed. Isonitrogen and isocaloric diets were either a standard diet enriched with citrulline 5 g/kg/d (n=10, group R+CIT), or a standard diet enriched with non essential amino acids (Ala, Gly, His, Asp, Ser in an equimolar ratio) (n=10, group R+AANE). Ten rats make up the control group (A.L); they are fed ad libitum all along the study before being sacrificed. Then the rats are sacrificed. The tibialis muscles are taken and quickly frozen in liquid nitrogen, then stored at −80° C. until analysis.
# Extraction of proteins and titration: The muscles are ground in liquid nitrogen with a mortar. The thus obtained powder is weighed, and then taken again in 10 volumes of a solubilization buffer containing a cocktail of phosphatase and protease inhibitors. […]
# epitrochlearis [4] = test: Metabolism of citrulline by isolated incubated muscle (amino acids titrated in incubation medium); assay type: in vitro ADME, rat; conditions: isolated muscle of healthy or undernourished adult rats, no metabolically linked amino acid released in incubation medium (results not shown)
# Protocol: Incubated isolated muscles. Muscles were incubated according to a method which had been used previously (Minet-Quinard R, Moinard C, Villie F, Vasson M P, Cynober L. Metabolic pathways implicated in the kinetic impairment of muscle glutamine homeostasis in adult and old glucocorticoid-treated rats. Am J Physiol Endocrinol Metab 2004; 287:E671-E676). Epitrochlearis is used because it is the most suitable for this type of study. After dissection, the epitrochlearis are incubated in 3 mL Krebs-Ringer buffer (119 mM NaCl; 4.8 mM KCl; 1.25 mM MgSO4; 25 mM NaHCO3; 1.24 mM NaHPO4; 1.0 mM CaCl2; 2 mM HEPES, pH 7.4), also containing glucose (8 mM), insulin (0.01 U/ml) and bovine serum albumin (BSA) (0.1% p/v). The muscles are pre-incubated during 30 minutes at 37° C. with 95% O2: 5% CO2. The muscles are then transferred into a tube containing 3 mL incubation medium (with ^13C-phenylalanine (1 mM) with or without 2.5 mM citrulline), and are incubated during 2 hours. At the end of the incubation, the muscles are collected and kept at −80° C. until the incorporation of ^13C-phenylalanine is measured by mass spectrometry in order to determine the Fractional Protein Synthesis (FSR) (Guillet C, Boirie Y, Walrand S. An integrative approach to in-vivo protein synthesis measurement: from whole tissue to specific proteins. Curr Opin Clin Nutr Metab Care 2004; 7:531-538). […]
compound,measurement,setting,value
NC(=O)NCCC[C@H](N)C(=O)O [L-citrulline],body weight,[1],allowed these rats to take on weight again
same,protein synthesis level,[2],restore a protein synthesis level which is equivalent to the baseline protein synthesis level among healthy aged rats
same,increase of muscle protein synthesis (FSR),epitrochlearis [3],+27%
same,increase of muscle protein synthesis (FSR),epitrochlearis [3]; listed as citrulline,up to 30%
same,effect on protein synthesis,"epitrochlearis [3]; isolated muscles of healthy adult rats, citrulline added in vitro",no effect
same,activity of P70S6 kinase as compared with group R,"P70S6kinase; 12 weeks 50% dietary restriction, then one week diet enriched with citrulline 5 g/kg/d",+417%
same,activity of P70S6 kinase compared with control group A.L. (in words),"P70S6kinase; dietary restriction, then one week enriched diet",not being significantly different
same,metabolism of citrulline by the muscle,epitrochlearis [4]; listed as Citrulline,not metabolized
same,metabolism of citrulline by the muscle,epitrochlearis [4]; listed as citrulline,no capacity to metabolize
